pKd: −log10 of the molar value.
The compounds below were run against Aldo-keto reductase family 1 member B1 (Homo sapiens, UniProt P15121) (assay: SPR Assay). Conditions: pH 8.5.
Procedure: The anti-His antibody (His Capture Kit, GE Healthcare) was immobilized on sensor chip CM5 (GE Healthcare), in a Biacore T200 or Biacore S200 instrument, to ∼10000 resonance units (RU) using a standard amine coupling procedure (Amine Coupling Kit, GE Healthcare). His-tagged aldose reductase (ALR2), at a concentration of 100 μg/mL, was captured on the anti-His antibody using dual injection consisting of a 3 min injection of protein followed by a 100 s activation with a mixture (1:1) of 0.2 M N-ethyl-N-(dimethylamino)propylcarbodiimide (EDC) and 50 mM N-hydroxysuccinimide (NHS), and final blocking with an injection of 1.0 Methanolamine (pH 8.5) for 100 s. […] For the interaction analysis, the compound concentrations ranged from 3 to 10000 nM with a 5-fold dilution step, using a single-cycle kinetic approach with three or five concentrations or injections per cycle.

SMILES	pKd
O=C(O)COc1cc(Cl)ccc1C(=O)NCc1cccc([N+](=O)[O-])c1 [2-(5-chloro-2-{[(3-nitrophenyl)methyl]carbamoyl}phenoxy)acetic acid]	7.85
NC(=O)[C@@H]1C[C@]2(NC(=O)NC2=O)c2cc(F)ccc2O1 [(2S,4S)-6-fluoro-2,5-dioxo-2,3-dihydrospiro[chromene-4,4-imidazolidine]-2-carboxamide]	7.80
O=C(O)COc1cc(F)ccc1C(=O)Nc1cccc([N+](=O)[O-])c1 [ALR2 inhibitor, 8]	7.64
O=C(O)COc1ccc(-c2ccccc2)cc1C(=O)NCc1cccc([N+](=O)[O-])c1 [ALR2 inhibitor, 11]	7.82

Source: BindingDB's records for doi:10.1021/acschembio.7b00062 (Philipps-Universität Marburg, 2017)
